This passage reports Ki results from patent US6242448A, “Trisubstituted-oxazole derivatives as serotonin ligands” (American Home Products Corporation, priority 1999, dated 2001).

SMILES strings stand for the structures.

For the assay, the target named is T1, human 5HT1A receptor (Homo sapiens, UniProt P08908).
T1 construct: expressed in transfected cells; host or cells: CHO cells (stably transfected)
T1 sequence (P08908 1-422): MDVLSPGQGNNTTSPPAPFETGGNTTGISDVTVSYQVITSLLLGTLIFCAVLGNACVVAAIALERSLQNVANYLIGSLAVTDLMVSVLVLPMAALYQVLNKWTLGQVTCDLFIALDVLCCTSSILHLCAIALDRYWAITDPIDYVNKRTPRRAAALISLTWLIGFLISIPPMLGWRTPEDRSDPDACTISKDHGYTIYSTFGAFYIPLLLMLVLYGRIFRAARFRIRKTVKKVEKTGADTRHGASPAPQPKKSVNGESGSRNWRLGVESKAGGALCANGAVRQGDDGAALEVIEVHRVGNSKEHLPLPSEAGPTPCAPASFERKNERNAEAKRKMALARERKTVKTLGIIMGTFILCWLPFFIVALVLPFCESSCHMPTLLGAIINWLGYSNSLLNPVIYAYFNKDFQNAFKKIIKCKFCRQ
Put plainly: 5-HT1A Receptor Binding Assay (displacement of [3H]8-OH-DPAT in CHO cells stably transfected with human 5HT1A receptor). Particulars: displacement of 8-OH-DPAT, 1.5 nM ligand, 30 minute incubation at room temperature. As for the experimental part:
High affinity for the serotonin 5--HT1A receptor was established by testing the claimed compound's ability to displace [^3 ]8-OH-DPAT binding in CHO cells stably transfected with human 5HT1A receptor. Stably transfected CHO cells are grown in DMEM containing 10% heat inactivated FBS and non-essential amino acids. Cells are scraped off the plate, transferred to centrifuge tubes, and washed twice by centrifugation (2000 rpm for 10 min., 4° C.) in buffer (50 mM Tris pH 7.5). The resulting pellets are aliquoted and placed at -80° C. On the day of assay, the cells are thawed on ice and resuspended in buffer. The binding assay is performed in a 96 well microtiter plate in a total volume of 250 μL. Non-specific binding is determined in the presence of […] 5HT, final ligand concentration is 1.5 nM. Following a 30 minute incubation at room temperature, the reaction is terminated by the addition of ice cold buffer and rapid filtration through a GF/B filter presoaked for 30 minutes in 0.5% PEI. Compounds are initially tested in a single point assay to determine percent inhibition at 1, 0.1, and 0.01 mM, and Ki values are determined for the active compounds.
A general note: Displacement assays read how much labelled ligand stays bound in the presence of the test substance.
As a reminder, the Ki is the equilibrium dissociation constant of an inhibitor or competing ligand from its target. Low values mean tighter binding, high ones weaker binding. For the molecule `c1ccc(Cc2nc(C3CCCCC3)oc2CN2CCN(c3cccc4c3OCCO4)CC2)cc1` [Example 9, 1-(4-Benzyl-2-cyclohexyl-oxazol-5-ylmethyl)-4(2,3-dihydro-benzo[1,4]dioxin-5-yl)-piperazine], the Ki is 4.72 nM.

For `c1ccc(Cc2nc(C3CCCCC3)oc2CN2CCN(c3cccc4[nH]ccc34)CC2)cc1` [Example 10, 4-[4-(4-Benzyl-2-cyclohexyl-oxazol-5-ylmethyl)-piperazin-1-yl]-1H-indole], affinity was put at a Ki of 7.1 nM.

Turning to `COc1ccccc1N1CCN(Cc2oc(C3CCCCC3)nc2Cc2ccccc2)CC1` [Example 11, 1-(4Benzyl-2-cyclohexyl-oxazol-5-ylmethyl)-4-(2-methoxyphenyl)-piperazine], the Ki stood at 0.88 nM.
